One test concerns the target T1, human Factor XIa (Homo sapiens, UniProt P03951).
T1 construct: purified human Factor XIa; purchased Sekisui Diagnostics
Kind of test: Factor XIa Assay. Type of test: biochemical. Particulars: read-out: F11a IC50. How it is done: The effectiveness of a compound of the present invention as an inhibitor of Coagulation Factor XIa can be determined using a relevant purified serine protease, and an appropriate synthetic substrate. The rate of hydrolysis of the chromogenic or fluorogenic substrate by the relevant serine protease was measured both in the absence and presence of compounds of the present invention. Assays were conducted at room temperature or at 37° C. […] A decrease in the rate of fluorescence change in the presence of inhibitor is indicative of enzyme inhibition. Such methods are known to one skilled in the art. […]
Factor XIa determinations were made in 50 mM HEPES buffer at pH 7.4 containing 150 mM NaCl, 5 mM CaCl2, and 0.1% PEG 8000 (polyethylene glycol; JT Baker or Fisher Scientific). Determinations were made using purified human Factor XIa at a final concentration of 40 pM (Sekisui Diagnostics) and the synthetic substrate, Z-Gly-Pro-Arg-AFC, TFA salt (Sigma #C0980) at a concentration of 100 μM.
Times required to achieve equilibration between enzyme and inhibitor were determined in control experiments. Initial velocities of product formation in the absence (Vo) or presence of inhibitor (Vi) were measured. Assuming competitive inhibition, and that unity is negligible compared Km/[S], [I]/e, and [I]/e (where [S], [I], and e respectively represent the total concentrations, of substrate, inhibitor and enzyme), the equilibrium constant (Ki) for dissociation of the inhibitor from the enzyme can be obtained from the dependence of Vo/Vi on [I] shown in the following equation.

In the next test the target is T2, Human plasma kallikrein (Homo sapiens, UniProt P03952).
T2 construct: yields a heavy chain (371 amino acids) and a light chain (248 amino acids); purchased Enzyme Research Laboratories
T2 sequence (P03952 391-638 limits assumed): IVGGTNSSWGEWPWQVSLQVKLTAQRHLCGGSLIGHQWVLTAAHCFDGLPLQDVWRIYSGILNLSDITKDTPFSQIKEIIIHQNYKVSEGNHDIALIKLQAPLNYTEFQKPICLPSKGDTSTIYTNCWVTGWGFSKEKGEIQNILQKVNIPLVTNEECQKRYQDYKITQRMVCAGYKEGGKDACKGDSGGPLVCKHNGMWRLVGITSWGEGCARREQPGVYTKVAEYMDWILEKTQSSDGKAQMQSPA
T2 sequence (P03952 20-390 partner limits assumed): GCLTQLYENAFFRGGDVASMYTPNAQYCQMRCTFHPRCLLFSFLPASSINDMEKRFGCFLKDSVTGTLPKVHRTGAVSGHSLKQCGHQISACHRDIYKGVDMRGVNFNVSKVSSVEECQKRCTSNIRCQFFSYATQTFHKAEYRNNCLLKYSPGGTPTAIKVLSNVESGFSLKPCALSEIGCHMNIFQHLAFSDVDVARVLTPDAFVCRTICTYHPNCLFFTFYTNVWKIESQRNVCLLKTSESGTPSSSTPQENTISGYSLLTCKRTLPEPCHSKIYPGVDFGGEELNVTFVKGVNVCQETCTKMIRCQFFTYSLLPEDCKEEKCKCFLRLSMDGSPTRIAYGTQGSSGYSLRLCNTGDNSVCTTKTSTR
Kind of test: Kallikrein Assay. Type of test: biochemical. The following applies: Plasma Kallekrein IC50, read-out: PK IC50. The protocol: The effectiveness of a compound of the present invention as an inhibitor of Kallikrein can be determined using a relevant purified serine protease, and an appropriate synthetic substrate. The rate of hydrolysis of the chromogenic or fluorogenic substrate by the relevant serine protease was measured both in the absence and presence of compounds of the present invention. Assays were conducted at room temperature or at 37° C. […] A decrease in the rate of fluorescence change in the presence of inhibitor is indicative of enzyme inhibition. Such methods are known to one skilled in the art. The results of this assay are expressed as the inhibitory constant, Ki.
Kallikrein determinations were made in 50 mM HEPES buffer at pH 7.4 containing 150 mM NaCl, 5 mM CaCl2, and 0.1% PEG 8000 (polyethylene glycol; Fisher Scientific). Determinations were made using purified Human plasma kallikrein at a final concentration of 0.5 nM (Enzyme Research Laboratories) and the synthetic substrate, Acetyl-K—P—R-AFC (Sigma # C6608) at a concentration of […].
Times required to achieve equilibration between enzyme and inhibitor were determined in control experiments. The reactions were performed under linear progress curve conditions and fluorescence increase measured at 405 Ex/510 Em nm. […] IC50 was determined by inflection point from a four parameter logistic curve fit. Ki was calculated using the Cheng Prusoff equation, Ki=IC50/(1+([S]/Km)).

pIC50: −log10 of the molar value. Read-outs that look alike come from different tables or passages of the source.

T1 sequence (P03951 388-625 limits assumed): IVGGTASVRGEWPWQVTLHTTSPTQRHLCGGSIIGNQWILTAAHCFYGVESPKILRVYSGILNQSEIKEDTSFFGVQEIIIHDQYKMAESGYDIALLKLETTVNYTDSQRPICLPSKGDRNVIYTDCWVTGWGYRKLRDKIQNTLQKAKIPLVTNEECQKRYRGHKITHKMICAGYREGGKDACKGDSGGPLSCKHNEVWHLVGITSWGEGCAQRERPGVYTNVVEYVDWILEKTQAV
T1 sequence (P03951 19-387 partner limits assumed): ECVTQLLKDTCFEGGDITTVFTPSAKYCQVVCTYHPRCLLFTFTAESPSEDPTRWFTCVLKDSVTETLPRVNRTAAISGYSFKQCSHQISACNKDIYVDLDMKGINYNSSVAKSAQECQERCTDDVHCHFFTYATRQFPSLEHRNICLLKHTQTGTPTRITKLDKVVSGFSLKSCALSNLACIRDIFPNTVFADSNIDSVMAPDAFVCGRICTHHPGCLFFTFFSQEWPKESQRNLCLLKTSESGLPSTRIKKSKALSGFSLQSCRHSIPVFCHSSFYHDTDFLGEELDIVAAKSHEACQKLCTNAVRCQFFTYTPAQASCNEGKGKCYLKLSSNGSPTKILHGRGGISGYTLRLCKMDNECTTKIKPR

Take `O=C(CC(c1nc2ccc(F)cc2[nH]1)c1ccc(-c2cc(Cl)ccc2-n2cnnn2)c[n+]1[O-])N1CCC1` (single isomer, unassigned) [Example 27]: the pIC50 (in general, −log10 of the IC50, conventionally taken in molar units) on human Factor XIa (Examples 20-28 table) was 7.10.
As to `N#Cc1ccc(Cl)cc1-c1ccc(C(Cc2ccccc2)c2nc3cc(C(=O)O)ccc3[nH]2)[n+]([O-])c1` (racemic) [Example 17], the results for the pIC50 on human Factor XIa (Examples 1-19 table) and on Human plasma kallikrein (Examples 1-19 table) were 7.42 and 6.47, respectively.
With `[O-][n+]1cc(-c2cc(Cl)ccc2-n2cnnn2)ccc1C(Cc1ccccc1)c1nc2cc(F)ccc2[nH]1` (stereo in doubt) [Example 8, (S)-5-(5-chloro-2-(1H-tetrazol-1-yl)phenyl)-2-(1-(5-fluoro-1H-benzo[d]imidazol-2-yl)-2-phenylethyl)pyridine 1-oxide], the negative logarithm of the IC50 (pIC50) was 8.88 on human Factor XIa (Examples 1-19 table) and 6.91 at Human plasma kallikrein (Examples 1-19 table).
For `[O-][n+]1cc(-c2cc(Cl)ccc2-n2cnnn2)ccc1[C@@H](Cc1ccc(F)cc1)c1nc2cc(F)ccc2[nH]1` [Example 15], the pIC50 at human Factor XIa (Examples 1-19 table) was 8.33; on Human plasma kallikrein (Examples 1-19 table), 6.61.
Regarding `O=C(O)c1ccc2nc(C(CC(=O)N3CCC3)c3ccc(-c4c(F)ccc(Cl)c4F)c[n+]3[O-])[nH]c2c1` (racemic) [Example 26], at human Factor XIa (Examples 20-28 table), the pIC50 is 5.10.
For `NC(=O)c1ccc(Cl)cc1-c1ccc([C@@H](Cc2ccccc2)c2nc3cc(F)ccc3[nH]2)[n+]([O-])c1` [Example 22, (R)-5-(2-carbamoyl-5-chlorophenyl)-2-(1-(5-fluoro-1H-benzo[d]imidazol-2-yl)-2-phenylethyl)pyridine 1-oxide], the pIC50 at human Factor XIa (Examples 20-28 table) is 6.81.
As to `O=C(O)c1ccc2[nH]c([C@@H](Cc3ccc(F)cc3)c3ccc(-c4c(F)ccc(Cl)c4F)c[n+]3[O-])nc2c1` [Example 11], the pIC50 at human Factor XIa (Examples 1-19 table) was 6.84.
As to `O=C(O)c1ccc2nc(C(CC3CC3)c3ccc(-c4cc(Cl)ccc4-n4cnnn4)c[n+]3[O-])[nH]c2c1` (racemic) [Example 24, 2-(1-(5-carboxy-1H-benzo[d]imidazol-2-yl)-2-cyclopropylethyl)-5-(5-chloro-2-(1H-tetrazol-1-yl)phenyl)pyridine 1-oxide], the pIC50 at human Factor XIa (Examples 20-28 table) was 7.85.
As for `O=C(O)c1ccc2[nH]c(C(Cc3ccccc3)c3ccc(-c4c(F)ccc(Cl)c4F)c[n+]3[O-])nc2c1` (stereo in doubt) [Example 3, (R)-2-(1-(5-Carboxy-1H-benzo[d]imidazol-2-yl)-2-phenylethyl)-5-(3-chloro-2,6-difluorophenyl)pyridine 1-oxide], the pIC50 on human Factor XIa (Examples 1-19 table) was 6.86; at Human plasma kallikrein (Examples 1-19 table), 6.74.
On the same counts, the results for `O=C(O)c1ccc2[nH]c(C(Cc3ccccc3)c3ccc(-c4c(F)ccc(Cl)c4F)c[n+]3[O-])nc2c1` (stereo in doubt) [Example 2, (S)-2-(1-(5-Carboxy-1H-benzo[d]imidazol-2-yl)-2-phenylethyl)-5-(3-chloro-2,6-difluorophenyl)pyridine 1-oxide] are 7.34 and 6.74.
For `N#Cc1ccc2[nH]c(C(Cc3ccccc3)c3ccc(-c4cc(Cl)ccc4-n4cnnn4)c[n+]3[O-])nc2c1` (racemic) [Example 16], the pIC50 was 8.88 at human Factor XIa (Examples 1-19 table) and 6.82 on Human plasma kallikrein (Examples 1-19 table).
On to `[O-][n+]1cc(-c2c(F)ccc(Cl)c2F)ccc1C(Cc1ccccc1)c1nc2cc(F)ccc2[nH]1` (racemic) [Example 10], for which the pIC50 on human Factor XIa (Examples 1-19 table) is 5.90.
On to `O=C(O)c1ccc2[nH]c([C@H](Cc3ccc(F)cc3)c3ccc(-c4c(F)ccc(Cl)c4F)c[n+]3[O-])nc2c1` [Example 12], for which the pIC50 at human Factor XIa (Examples 1-19 table) was 6.80.
Consider `[O-][n+]1cc(-c2cc(Cl)ccc2-n2cnnn2)ccc1C(Cc1ccccc1)c1nc2cc(F)ccc2[nH]1` (racemic) [Example 7, 5-(5-chloro-2-(1H-tetrazol-1-yl)phenyl)-2-(1-(5-fluoro-1H-benzo[d]imidazol-2-yl)-2-phenylethyl)pyridine 1-oxide], for which the pIC50 on human Factor XIa (Examples 1-19 table) was 8.94; at Human plasma kallikrein (Examples 1-19 table), 6.73.
With `O=C(O)c1ccc2[nH]c(C(Cc3ccccc3)c3ccc(-c4c(F)ccc(Cl)c4F)c[n+]3[O-])nc2c1` (racemic) [Example 1, 2-(1-(5-Carboxy-1H-benzo[d]imidazol-2-yl)-2-phenylethyl)-5-(3-chloro-2,6-difluorophenyl)pyridine 1-oxide], the pIC50 at human Factor XIa (Examples 1-19 table) was 7.05; at Human plasma kallikrein (Examples 1-19 table) it was 6.53.
Consider `O=C(O)c1ccc2[nH]c([C@H](Cc3ccccc3)c3ccc(-c4cc(Cl)ccc4-n4cnnn4)c[n+]3[O-])nc2c1` [Example 6, (R)-2-(1-(5-Carboxy-1H-benzo[d]imidazol-2-yl)-2-phenylethyl)-5-(5-chloro-2-(1H-tetrazol-1-yl)phenyl)pyridine 1-oxide], for which the pIC50 was 9.29 at human Factor XIa (Examples 1-19 table) and 7.55 on Human plasma kallikrein (Examples 1-19 table).
In the case of `[O-][n+]1cc(-c2c(-n3cnnn3)ccc(Cl)c2F)ccc1[C@@H](Cc1ccccc1)c1nc2cc(F)ccc2[nH]1` [Example 20, 2-[(1R)-1-{5-[3-chloro-2-fluoro-6-(1H-tetrazol-1-yl)phenyl]-1-oxidopyridin-2-yl}-2-phenylethyl]-5-fluoro-1H-benzimidazole], the pIC50 is 8.74 at human Factor XIa (Examples 20-28 table) and 7.19 on Human plasma kallikrein (Examples 20-28 table).
With `N#Cc1ccc2[nH]c(C(Cc3ccccc3)c3ccc(-c4c(F)ccc(Cl)c4F)c[n+]3[O-])nc2c1` (racemic) [Example 13], at human Factor XIa (Examples 1-19 table), the pIC50 is 5.73.
For the compound `NC(=O)c1ccc(Cl)cc1-c1ccc([C@H](Cc2ccccc2)c2nc3cc(F)ccc3[nH]2)[n+]([O-])c1` [Example 23, (S)-5-(2-carbamoyl-5-chlorophenyl)-2-(1-(5-fluoro-1H-benzo[d]imidazol-2-yl)-2-phenylethyl)pyridine 1-oxide], the pIC50 at human Factor XIa (Examples 20-28 table) was 6.00.
As for `[O-][n+]1cc(-c2c(-n3cnnn3)ccc(Cl)c2F)ccc1[C@H](Cc1ccccc1)c1nc2cc(F)ccc2[nH]1` [Example 21, 2-[(1S)-1-{5-[3-chloro-2-fluoro-6-(1H-tetrazol-1-yl)phenyl]-1-oxidopyridin-2-yl}-2-phenylethyl]-5-fluoro-1H-benzimidazole], the pIC50 at human Factor XIa (Examples 20-28 table) was 7.93; at Human plasma kallikrein (Examples 20-28 table) it was 6.77.
With `O=C(O)c1ccc2[nH]c(C(Cc3ccccc3)c3ccc(-c4cc(Cl)ccc4C(=O)O)c[n+]3[O-])nc2c1` (racemic) [Example 25], the pIC50 at human Factor XIa (Examples 20-28 table) was 7.27; at Human plasma kallikrein (Examples 20-28 table), 5.56.
For `O=C(CC(c1nc2ccc(F)cc2[nH]1)c1ccc(-c2cc(Cl)ccc2-n2cnnn2)c[n+]1[O-])N1CCC1` (single isomer, unassigned) [Example 28], the pIC50 on human Factor XIa (Examples 20-28 table) was 7.03; on Human plasma kallikrein (Examples 20-28 table) it was 5.74.
With `O=C(O)c1ccc2[nH]c([C@@H](Cc3ccccc3)c3ccc(-c4cc(Cl)ccc4-n4cnnn4)c[n+]3[O-])nc2c1` [Example 5, (S)-2-(1-(5-Carboxy-1H-benzo[d]imidazol-2-yl)-2-phenylethyl)-5-(5-chloro-2-(1H-tetrazol-1-yl)phenyl)pyridine 1-oxide], the figures for the pIC50 at human Factor XIa (Examples 1-19 table) and on Human plasma kallikrein (Examples 1-19 table) were 8.47 and 6.67, respectively.
On to `[O-][n+]1cc(-c2cc(Cl)ccc2-n2cnnn2)ccc1[C@H](Cc1ccc(F)cc1)c1nc2cc(F)ccc2[nH]1` [Example 14], for which the pIC50 on human Factor XIa (Examples 1-19 table) is 7.05; on Human plasma kallikrein (Examples 1-19 table), 6.09.
On to `O=C(O)c1ccc2[nH]c(C(Cc3ccccc3)c3ccc(-c4cc(Cl)ccc4-n4cnnn4)c[n+]3[O-])nc2c1` (racemic) [Example 4, 2-(1-(5-Carboxy-1H-benzo[d]imidazol-2-yl)-2-phenylethyl)-5-(5-chloro-2-(1H-tetrazol-1-yl)phenyl)pyridine 1-oxide], for which the pIC50 is 9.35 on human Factor XIa (Examples 1-19 table) and 7.28 on Human plasma kallikrein (Examples 1-19 table).
For `[O-][n+]1cc(-c2cc(Cl)ccc2-n2cnnn2)ccc1C(Cc1ccccc1)c1nc2cc(F)ccc2[nH]1` (stereo in doubt) [Example 9, (R)-5-(5-chloro-2-(1H-tetrazol-1-yl)phenyl)-2-(1-(5-fluoro-1H-benzo[d]imidazol-2-yl)-2-phenylethyl)pyridine 1-oxide], the negative logarithm of the IC50 (pIC50) at human Factor XIa (Examples 1-19 table) was 8.48; on Human plasma kallikrein (Examples 1-19 table), 6.53.

These data come from patent US10011585B2, “Factor XIa inhibitors” (Merck Sharp & Dohme Corp., priority 2014, dated 2018).
